What all share (assay type): cell-based
The test system of test [1] is ICAM-1. Nature of the test: Poly I:C-induced ICAM-1 expression in BEAS2B cells. Conditions: Homo sapiens, BEAS-2B, read-out: PolyIC/ICAM1 IC50 (BEAS2B). The procedure: Poly I:C was used in these studies as a simple, RNA virus mimic. Poly I:C-Oligofectamine mixture (1 μg/mL Poly I:C, ±2% Oligofectamine, 25 μL; Invivogen Ltd., San Diego, Calif., and Invitrogen, Carlsbad, Calif., respectively) was transfected into BEAS2B cells (human bronchial epithelial cells, ATCC). Cells were pre-incubated with final concentrations of test compounds for 2 hr and the level of ICAM-1 expression on the cell surface was determined by cell-based ELISA. At a time point 18 hr after poly I:C transfection, cells were fixed with 4% formaldehyde in PBS (100 μL) and then endogenous peroxidase was quenched by the addition of washing buffer (100 μL, 0.05% Tween in PBS: PBS-Tween) containing 0.1% sodium azide and 1% hydrogen peroxide. Cells were washed with wash-buffer (3×200 μL). and after blocking the wells with 5% milk in PBS-Tween (100 μL) for 1 hr, the cells were incubated with anti-human ICAM-1 antibody (50 μL; Cell Signaling Technology, Danvers, Mass.) in 1% BSA PBS overnight at 4° C.
The cells were washed with PBS-Tween (3×200 μL) and incubated with the secondary antibody (100 μL; HRP-conjugated anti-rabbit IgG, Dako Ltd., Glostrup, Denmark). The cells were then incubated with of substrate (50 μL) for 2-20 min, followed by the addition of stop solution (50 μL, 1N H2SO4). The ICAM-1 signal was detected by reading […] the absorbance at 450 nm against a reference wavelength of 655 nm using a spectrophotometer. The cells were then washed with PBS-Tween (3×200 μL) and total cell numbers in each well were determined by reading absorbance at 595 nm after Crystal Violet staining (50 μL of a 2% solution in PBS) and elution by 1% SDS solution (100 μL) in distilled water. The measured OD 450-655 readings were corrected for cell number by dividing with the OD595 reading in each well. The inhibition of ICAM-1 expression was calculated at each concentration of test compound by comparison with vehicle control.

Test [2] relates to HRV16. Nature of the test: HRV16 induced CPE in MRC5 cells. To be noted: Human rhinovirus sp., HRV16, MRC5, at 0.04 μg/mL; read-out: HRV CPE (MRC5) % inhibition. The procedure: The supernatants were aspirated, and then fresh media added followed by incubation for 4 days. Where appropriate, cells were pre-incubated with compound or DMSO for 2 hr, and the compounds and DMSO added again after washout of the virus.
The percentage inhibition for each well was calculated. The IC50 value was calculated from the concentration-response curve generated by the serial dilutions of the test compounds.

Test [3] relates to IL-8. In words: LPS-induced IL-8 release in d-U937 cells. Conditions: Homo sapiens, dU937, dU937 cells. The procedure:
(§1) U937 cells, a human monocytic cell line, were differentiated into macrophage-type cells by incubation with PMA (100 ng/mL) for 48 to 72 hr. Cells were pre-incubated with final concentrations of test compound for 2 hr and were then stimulated with LPS (0.1 μg/mL; from E. Coli: O111:B4, Sigma) for 4 hr. The supernatant was collected for determination of TNFα and IL-8 concentrations by sandwich ELISA (Duo-set, R&D systems). […] The relative 50% effective concentration (REC50) was determined from the resultant concentration-response curve. The inhibition of IL-8 production was calculated at each concentration of test compound by comparison with vehicle control.

Test [4] has as its system IL-8. Nature of the test: Rhinovirus-induced IL-8 release in BEAS2B cells. To be noted: Homo sapiens, BEAS-2B, at 0.04 μg/mL; read-out: HRV IL-8 (BEAS2B) % inhibition. The procedure: Human rhinovirus RV16 was obtained from the American Type Culture Collection (Manassas, Va.). Viral stocks were generated by infecting Hela cells with HRV until 80% of the cells were cytopathic.
BEAS2B cells were infected with HRV at an MOI of 5 and incubated for 2 hr at 33° C. with gentle shaking for to promote absorption. The cells were then washed with PBS, fresh media added and the cells were incubated for a further 72 hr. The supernatant was collected for assay of IL-8 concentrations using a Duoset ELISA development kit (R&D systems, Minneapolis, Minn.). […]

In test [5] the test system is TNFα. Nature of the test: LPS-induced TNFα release in d-U937 cells. To be noted: Homo sapiens, dU937, dU937 cells; relative to 10 μg/mL BIRB796; read-out: LPS Induced Release TNFα REC50 (dU937). The procedure: as §1
Test [6] concerns TNFα. Nature of the test: LPS-induced TNFα release in THP-1 cells. Conditions: Homo sapiens, THP-1, THP1 cells. The procedure: THP-1 cells, a human monocytic cell line, were stimulated with 3 μg/mL of LPS (from E. Coli; 0111:B4, Sigma) for 4 hr and the supernatant collected for determination of the TNFα concentration by sandwich ELISA (Duo-set, R&D systems). The inhibition of TNFα production was calculated at each concentration by comparison with vehicle control.

The test system of test [7] is PBMC. Nature of the test: Cell mitosis assay. Conditions: Homo sapiens; for inhibition at 5 µg/mL: read-out: Mitosis Assay % inhibition in PBMC Cells at concn 5 μg/mL; for inhibition at 1 µg/mL: read-out: Mitosis Assay % inhibition in PBMC Cells at concn 1 μg/mL. The procedure:
Peripheral blood mononucleocytes (PBMCs) from healthy subjects were separated from whole blood (Quintiles, London, UK) using a density gradient (Histopaque®-1077, Sigma-Aldrich, Poole, UK). The PBMCs (3 million cells per sample) were subsequently treated with 2% PHA (Sigma-Aldrich, Poole, UK) for 48 hr, followed by a 20 hr exposure to varying concentrations of test compounds. At 2 hr before collection, PBMCs were treated with demecolcine (0.1 μg/mL; Invitrogen, Paisley, UK,) to arrest cells in metaphase. To observe mitotic cells, PBMCs were permeabilised and fixed by adding Intraprep (50 μL; Beckman Coulter, France), and stained with anti-phospho-histone 3 ([…]; #9701; Cell Signalling, Danvers, Mass.) and propidium iodide (1 mg/mL; Sigma-Aldrich, Poole, UK,) as previously described (Muehlbauer P. A. and Schuler M. J., Mutation Research, 2003, 537:117-130). Fluorescence was observed using an ATTUNE flow cytometer (Invitrogen, Paisley, UK), gating for lymphocytes.

Some results are limits rather than exact numbers.

In the case of `COc1ccccc1Nc1nccc(Oc2ccc(NC(=O)Nc3cc(C(C)(C)C)nn3-c3ccc(C)cc3)c3ccccc23)n1` [Example 5, 1-(3-(tert-butyl)-1-(p-tolyl)-1H-pyrazol-5-yl)-3-(4-((2-((2-methoxyphenyl)amino)pyrimidin-4-yl)oxy)naphthalen-1-yl)urea], the results for the IC50 in test [1], in test [3] and in test [6] were 17 nM, 6.2 nM and 66 nM, respectively. Moreover, the figures for the inhibition at 0.04 µg/mL in test [2] and in test [4] were 91% and 49%, respectively. Further, in test [5], the EC50 turned out to be 2.9 nM.
As to `COc1ccc(-n2nc(C(C)(C)C)cc2NC(=O)Nc2ccc(Oc3ccnc(Nc4ccccc4)n3)c3ccccc23)cc1` [Example 7, 1-(3-(tert-butyl)-1-(4-methoxyphenyl)-1H-pyrazol-5-yl)-3-(4-((2-(phenylamino)pyrimidin-4-yl)oxy)naphthalen-1-yl)urea], the inhibition at 5 µg/mL in test [7] is 10.2%. For the same molecule, the inhibition at 0.04 µg/mL was no more than 0% in test [2] and 100% in test [4]. In addition, the IC50 was determined as 2.1 nM in test [3] and 10 nM in test [6]. Further, the EC50 in test [5] is 1.7 nM.
As for `COc1ccc(Nc2nccc(Oc3ccc(NC(=O)Nc4cc(C(C)(C)C)nn4-c4ccc(C)cc4)c4ccccc34)n2)c(OC)c1` [Example 8, 1-(3-(tert-butyl)-1-(p-tolyl)-1H-pyrazol-5-yl)-3-(4-((2-((2,4-dimethoxyphenyl)amino)pyrimidin-4-yl)oxy)naphthalen-1-yl)urea], in test [7], the inhibition at 1 µg/mL was 15.6%. Moreover, the inhibition at 0.04 µg/mL in test [2] and in test [4] was 100% each time. Moreover, the IC50 in test [3] came out at 235 nM; in test [6] it was 225 nM. In test [5], the EC50 is 227 nM.
Regarding `Cc1ccc(-n2nc(C(C)(C)C)cc2NC(=O)Nc2ccc(Oc3ccnc(Nc4ccc(Cl)cc4)n3)c3ccccc23)cc1` [Example 16, 1-(3-(tert-butyl)-1-(p-tolyl)-1H-pyrazol-5-yl)-3-(4-((2-((4-chlorophenyl)amino)pyrimidin-4-yl)oxy)naphthalen-1-yl)urea], the values for the IC50 in test [1], in test [3] and in test [6] were 36 nM, 0.31 nM and 4.1 nM, respectively. Further, the inhibition at 0.04 µg/mL was 10% in test [2] and 100% in test [4]. Moreover, in test [5], the EC50 came to 1.1 nM.
As for `Cc1ccc(-n2nc(C(C)(C)C)cc2NC(=O)Nc2ccc(Oc3ccnc(Nc4ccc(Cl)cc4C)n3)c3ccccc23)cc1` [Example 18, 1-(3-(tert-butyl)-1-(p-tolyl)-1H-pyrazol-5-yl)-3-(4-((2-((4-chloro-2-methylphenyl)amino)pyrimidin-4-yl)oxy)naphthalen-1-yl)urea], the IC50 in test [1] is 28 nM; in test [3] it was 15 nM; in test [6] it was 157 nM. In addition, the figures for the inhibition at 0.04 µg/mL in test [2] and in test [4] were no more than 0% and 100%, respectively. In test [5], the EC50 came out at 13 nM.
Turning to `COc1cc(Nc2nccc(Oc3ccc(NC(=O)Nc4cc(C(C)(C)C)nn4-c4ccc(C)cc4)c4ccccc34)n2)ccc1O` [Example 25, 1-(3-(tert-butyl)-1-(p-tolyl)-1H-pyrazol-5-yl)-3-(4-((2-((4-hydroxy-3-methoxyphenyl)amino)pyrimidin-4-yl)oxy)naphthalen-1-yl)urea], in test [7], the inhibition at 1 µg/mL worked out at 29.1% and the inhibition at 5 µg/mL came to 63.5%. The IC50 in test [3] is 1.5 nM. Besides, in test [4], the inhibition at 0.04 µg/mL was determined as 100%. Also, in test [5], the EC50 came to 0.84 nM. Also, the IC50 in test [6] is 0.4 nM.
In the case of `COc1ccc(Nc2nccc(Oc3ccc(NC(=O)Nc4cc(C(C)(C)C)nn4-c4ccc(C)cc4)c4ccccc34)n2)cc1OC` [Example 27, 1-(3-(tert-butyl)-1-(p-tolyl)-1H-pyrazol-5-yl)-3-(4-((2-((3,4-dimethoxyphenyl)amino)pyrimidin-4-yl)oxy)naphthalen-1-yl)urea], the inhibition at 5 µg/mL in test [7] stood at 11.2%. In addition, the results for the inhibition at 0.04 µg/mL in test [2] and in test [4] were 51% and 100%, respectively. The values for the IC50 in test [3] and in test [6] were 2 nM and 0.5 nM, respectively. For the same molecule, the EC50 in test [5] was determined as 0.54 nM.
With `Cc1ccc(-n2nc(C(C)(C)C)cc2NC(=O)Nc2ccc(Oc3ccnc(Nc4ccc(O)cc4Cl)n3)c3ccccc23)cc1` [Example 31, 1-(3-(tert-butyl)-1-(p-tolyl)-1H-pyrazol-5-yl)-3-(4-((2-((2-chloro-4-hydroxyphenyl)amino)pyrimidin-4-yl)oxy)naphthalen-1-yl)urea], the inhibition at 0.04 µg/mL in test [2] was no more than 0%; in test [4], 100%. Also, the IC50 in test [3] came to 32 nM; in test [6], 6.1 nM. Also, the EC50 in test [5] stood at 16 nM.
As for `Cc1ccc(-n2nc(C(C)(C)C)cc2NC(=O)Nc2ccc(Oc3ccnc(Nc4ccc(O)cc4O)n3)c3ccccc23)cc1` [Example 32, 1-(3-(tert-butyl)-1-(p-tolyl)-1H-pyrazol-5-yl)-3-(4-((2-((2,4-dihydroxyphenyl)amino)pyrimidin-4-yl)oxy)naphthalen-1-yl)urea], in test [7], the inhibition at 5 µg/mL amounted to 33%. For the same molecule, the inhibition at 0.04 µg/mL in test [2] amounted to 26%; in test [4], 100%. In addition, the IC50 worked out at 9.7 nM in test [3] and 14 nM in test [6]. Also, the EC50 in test [5] was 12 nM.
Take `COc1ccc(-n2nc(C(C)(C)C)cc2NC(=O)Nc2ccc(Oc3ccnc(Nc4ccc(O)cc4)n3)c3ccccc23)cc1` [Example 33, 1-(3-(tert-butyl)-1-(4-methoxyphenyl)-1H-pyrazol-5-yl)-3-(4-((2-((4-hydroxyphenyl)amino)pyrimidin-4-yl)oxy)naphthalen-1-yl)urea]: in test [7], the inhibition at 5 µg/mL amounted to 67.2%. Moreover, the inhibition at 0.04 µg/mL in test [2] is 44%; in test [4], 100%. Also, the IC50 was determined as 6.3 nM in test [3] and 0.5 nM in test [6]. Also, the EC50 in test [5] came out at 7.4 nM.

The record behind these values is US10238658B2, “1-pyrazolyl-3-(4-((2-anilinopyrimidin-4-yl) oxy) napththalen-1-yl) ureas as p38 MAP kinase inhibitors” (Respivert Limited, priority 2011, dated 2019).
